Data on five molecules can be found in patent publication EP0359454B1, “CC-1065 analogs having two CPI subunits” (PHARMACIA & UPJOHN COMPANY, priority 1988, dated 1990).

The conditions of series [1]: in vitro and in vivo, depending upon the particular test system; cited from earlier work.
The subject of the next series is L-1210 i.p. Kind of series: L-1210 i.p. tumor, i.p. dose on days 1,5,9. In kind it is in vivo, murine. Conditions: for OD (optimum dose): i.p. dose on days 1,5,9; for cures: i.p. dose on days 1,5,9, at optimum dose, survival 30 days = cured. From the text:
(§1) Table 3 presents data comparing [S-(R*,R*)]-6,6′-[carbonylbis(imino-1H-indole-5,2-dicarbonyl)]bis[8-chloromethyl)-3,6,7,8-tetrahydro-1-methyl-benzo[1,2-b:4,3-b′]dipyrrol-4-ol (Compound 1) with (7bR)-N-[2-[(4,5,8,8a-tetrahydro-7-methyl-4-oxocyclopropa-[C]pyrrolo[3,2-e]indol-2(1H)0yl)carbonyl]-1H-indol-5-yl]-2-benzofurancarboxamide (U-73,975) in the other murine systems where the compounds have been run jointly.
(§2) The results set forth in Tables 1 and 4 were obtained using standard well known procedures (In Vivo Cancer, Models, NIH Publication No. 84-2635, 1984).
(§3) T/C refers to median life span of treated mice divided by median life span of control mice times 100.

Series [2] is described as follows: Delayed death in animals without tumor. In kind it is in vivo, murine. Conditions: NO TUMOR.
Description: as §1

Another series has as its system L-1210 Leukemia. Kind of series: L-1210 leukemia in vivo, IV drug vs IP tumor, dosed on day 1. More on the design: species or system Male BDF1 mice. Conditions: for OD (optimum dose): i.v. dose on day 1.
Description: as §1, §2, §3

A further series relates to L-1210 sc. Kind of series: L-1210 sc tumor, i.p. dose on day 1. In kind it is in vivo, murine. Conditions: for OD (optimum dose) / cures: L-1210 sc; for OD (optimum dose): i.p. dose 1 on day 1; for cures: i.p. dose 1 on day 1, at optimum dose, survival 30 days = cured.
Description: as §1, §2, §3

In the next series the test system is Lewis Lung i.v. Kind of series: Lewis Lung i.v. tumor, i.v. dose on days 1,5,9. The series is classed as in vivo, murine. Conditions: for OD (optimum dose): i.v. dose on days 1,5,9; for T/C: i.v. dose on days 1,5,9, at optimum dose.
Description: as §1, §3

For another series, the system named is L1210 leukemia cells. Kind of series: In vitro L1210 cell growth inhibition. In kind it is cell-based, murine. Conditions: Mus musculus, concentration of drug which inhibits cell growth 50%, read-out: ID50 (the source's name).
Description: as §1

A further series deals with B-16 i.p. Kind of series: B-16 i.p. tumor, i.v. dose on day 1. Conditions: for OD (optimum dose): i.v. dose on day 1; for T/C: i.v. dose on day 1, at optimum dose. In kind it is in vivo, murine.
Description: The compounds of Formula I are particularly useful as antitumor agents. […] These murine test systems are predictive for clinically useful human antitumor agents (see, for examle, A. Geldin et al, European J. Cancer, Vol. 17, pp 129-142, 1981; J.M. Vendetti, Cancer Treatment Reports, Vol. 67, pp. 767-772, 1983; and J.M. Vendetti et al, Advances in Pharmacology and Chemotherapy, Vol. 20, pp. 1-20, 1984), and, therefore, the compounds of the subject invention (Formula I) will be useful in the control and treatment of susceptible neoplastic (cancer) diseases, including susceptible leukemics, in humans when given, for example, intravenously in doses of 0.001 µg/kg to about 10 mg/kg of body weight per day, the exact dose depending on the age, weight, and condition of the patient, and on the frequency of administration.
as §1, §3

Setting [3] is: IV drug vs IP tumor, dosed on day 1, animals surviving 30 days are considered cured, at the dose (µg/kg).
The mark [4] stands for this setting: IV drug vs IP tumor, dosed on day 1, T/C = median survival treated/control x 100, each value at the dose (1-600 µg/kg).

Converted amounts (≈) assume the structure as drawn.

For `COc1c(O)c2c(c3cc(C(=O)N4CCc5c4c(O)c(OC)c4[nH]c(C(=O)N6CC(COC(C)=O)c7c6cc(O)c6[nH]cc(C)c76)cc54)[nH]c13)CCN2C(N)=O` (stereo not drawn) [AAP, 7-[[7-[[1-[(acetyloxy)methyl]-1,6-dihydro-5-hydroxy-8-methylbenzo[1,2-b:4,3-b′]dipyrrol-3(2H)-yl]carbonyl]-1,6-dihydro-4-hydroxy-5-methoxybenzo[1,2:4,3-b′]-dipyrrol-3(2H)-yl]carbonyl]-1,6-dihydro-4-hydroxy-5-methoxy-benzo[1,2-b:4,3-b′]dipyrrole-3(2H)-carboxamide], the “factor by which less potent than CC-1065” value in series [1] is on record as 10^3 to 10^4.
As to `Cc1c[nH]c2c(O)cc3c(c12)[C@H](CCl)CN3C(=O)c1cc2cc(NC(=O)Nc3ccc4[nH]c(C(=O)N5C[C@@H](CCl)c6c5cc(O)c5[nH]cc(C)c65)cc4c3)ccc2[nH]1` [Compound 1, [S-(R*,R*)]-6,6′-[carbonylbis(imino-1H-indole-5,2-dicarbonyl)]bis[8-chloromethyl)-3,6,7,8-tetrahydro-1-methylbenzo[1,2-b:4,3-b′]dipyrrol-4-ol], the “OD (optimum dose)” value in the series on L-1210 i.p. was 0.004 mg/kg; in the series on L-1210 Leukemia (L-1210 i.p.), 0.01 to 0.015 mg/kg; with L-1210 sc it was 0.01 to 0.025 mg/kg; in the series on Lewis Lung i.v. it was 0.004 mg/kg; in the series on B-16 i.p. it was 0.015 mg/kg. Moreover, the cures result is “(3/6)” in the series with L-1210 i.p.; 4/6 cures in the series with L-1210 Leukemia (setting [3]); “(4/6)” in the series with L-1210 Leukemia (L-1210 i.p., i.v. dose on day 1, at optimum dose, animals which survive 30 days are considered cured); “(6/6)” with L-1210 sc. Further, the results for the Delayed death result in series [2] and in series [2] (listed as Cpd 1) were “not to cause delayed death” and “No Delayed Death”, respectively. Besides, the “In vivo L1210 activity (in words)” value with L-1210 Leukemia (at 15 µg/kg) is given as “highly curative”. The “Activity compared with U-73,975 (in words)” value with L-1210 sc (subcutaneous L1210 assay, over several dose ranges) was “superior activity”. The T/C in the series with Lewis Lung i.v. was 168; in the series with B-16 i.p., 167. Also, the IC50 with L1210 leukemia cells amounted to 0.001 ng/mL (≈ 0.00123 nM).
As for `CCCCCCCCCC(=O)Oc1cc2c(c3c(C)c[nH]c13)[C@H](CCl)CN2C(=O)c1cc2cc(NC(=O)Nc3ccc4[nH]c(C(=O)N5C[C@@H](CCl)c6c5cc(OC(=O)CCCCCCCCC)c5[nH]cc(C)c65)cc4c3)ccc2[nH]1` [Compound 15, [S-(R*,R*)]-carbonylbis[imino-1H-indole-5,2-diylcarbonyl[1-(chloromethyl)-1,6-dihydro-8-methylbenzo[1,2-b:4,3-b′]dipyrrole-3,5(2H)-diyl]]ester, decanoic acid], the “Best T/C” value in the series with L-1210 Leukemia (setting [4]) is reported as 243. In addition, the cures in the series on L-1210 Leukemia (setting [3]) is recorded as 1. In the series with L1210 leukemia cells, the IC50 came out at 0.001 ng/mL (≈ 0.00089 nM).
The corresponding values for `Cc1c[nH]c2c(O)cc3c(c12)[C@H](CCl)CN3C(=O)c1cc2c3c(ccc2[nH]1)N(C(=O)N1CCc2c1ccc1[nH]c(C(=O)N4C[C@@H](CCl)c5c4cc(O)c4[nH]cc(C)c54)cc21)CC3` [Compound 16, [S-(R*,R*)]-6,6′-[carbonylbis[(7,8-dihydrobenzo[1,2-b:4,3-b′]dipyrrole-6,2(3H)-diyl)carbonyl]]bis[8-chloromethyl)-3,6,7,8-tetrahydro-1-methyl-benzo[1,2-b:4,3b′]dipyrrol-4-ol] are 243, 1/6 and 0.002 ng/mL (≈ 0.0023 nM).
Regarding `Cc1c[nH]c2c1[C@@]13C[C@@H]1CN(C(=O)c1cc4cc(NC(=O)c5cc6ccccc6o5)ccc4[nH]1)C3=CC2=O` [U-73,975, (7bR)-N-[2-[(4,5,8,8a-tetrahydro-7-methyl-4-oxocyclopropa-[C]pyrrolo[3,2-e]indol-2(1H)0yl)carbonyl]-1H-indol-5-yl]-2-benzofurancarboxamide, reference compound], the “OD (optimum dose)” value was 0.02 mg/kg in the series on L-1210 i.p.; 0.1 mg/kg in the series with L-1210 Leukemia (L-1210 i.p.); 0.1 mg/kg with L-1210 sc; 0.025 mg/kg with Lewis Lung i.v.; 0.1 mg/kg with B-16 i.p.. Also, the cures entry with L-1210 i.p. and in the series on L-1210 sc was “(4/6)” each time. Further, the Delayed death result in series [2] was “not to cause delayed death”; in series [2] (listed as U-73-975) it was “No Delayed Death”. Besides, the “Best T/C” value in the series with L-1210 Leukemia (setting [4]) amounted to 213; in the series on L-1210 Leukemia (L-1210 i.p., i.v. dose on day 1, at optimum dose), 213. The T/C in the series with Lewis Lung i.v. was determined as 147; in the series with B-16 i.p., 160.
